Data from patent US20140179664A1, “Heterocyclyl Pyrimidine Analogues As JAK Inhibitors” (Cellzome Limited, priority 2011, published 2014).

Tests used:
Type in all cases: binding
JAK1 = molecular target: T1, JAK1 (Homo sapiens, UniProt P23458); experiment: Kinobeads assay, JAK1; details: mixed Molt4/Ramos lysate, read-out: Inhibition values (IC50) JAK1
T1 construct: endogenous in cells; host or cells: Molt4 (ATCC CRL-1582) and Ramos (ATCC CRL-1596), mixed lysate 1:2
Description: After the incubation time the beads with captured proteins were separated from the lysate. Bound proteins were then eluted and the presence of JAK1, JAK2, JAK3 and TYK2 was detected and quantified using specific antibodies in a dot blot procedure and the Odyssey infrared detection system. Dose response curves for individual kinases were generated and IC50 values calculated.
(§1) 5×DP buffer: 250 mM Tris-HCl pH 7.4, 25% Glycerol, 7.5 mM MgCl2, 750 mM NaCl, 5 mM Na3VO4; filter the 5×DP buffer through a 0.22 μm filter and store in aliquots at −80° C. The 5×DP buffer is diluted with H2O to 1×DP buffer containing 1 mM DTT and 25 mM NaF.
Stock solutions of test compounds were prepared in DMSO. […] Starting with this solution a 1:3 dilution series (9 steps) was prepared. For control experiments (no test compound) a buffer containing 2% DMSO was used.
Cells were homogenized in a Potter S homogenizer in lysis buffer: 50 mM Tris-HCl, 0.8% NP40, 5% glycerol, 150 mM NaCl, 1.5 mM MgCl2, 25 mM NaF, 1 mM sodium vanadate, 1 mM DTT, pH 7.5. […] The material was dounced 10 times using a mechanized POTTER S, transferred to 50 mL falcon tubes, incubated for 30 minutes on ice and spun down for 10 minutes at 20,000 g at 4° C. (10,000 rpm in Sorvall SLA600, precooled). […] (33.500 rpm in Ti50.2, precooled). The supernatant was transferred again to a fresh 50 mL falcon tube, the protein concentration was determined by a Bradford assay (BioRad) and samples containing 50 mg of protein per aliquot were prepared. The samples were immediately used for experiments or frozen in liquid nitrogen and stored frozen at −80° C.
Cell lysate (approximately 50 mg protein per plate) was thawed in a water bath at room temperature and then stored on ice. […] The diluted cell lysate was stored on ice. Mixed Molt4/Ramos lysate was prepared by combining one volume of Molt4 lysate and two volumes of Ramos lysate (ratio 1:2).
Plates were sealed and incubated for 3 hours in a cold room on a plate shaker (Heidolph tiramax 1000) at 750 rpm. Afterwards the plate was washed 3 times with 230 μL washing buffer (1×DP 0.4% NP40). […] The eluate was frozen quickly at −80° C. and stored at −20° C.
Afterwards the membrane was washed twice for 10 minutes with PBS buffer containing 0.2% Tween 20 at room temperature. […] Afterwards the membrane was washed twice for 10 minutes each with 1×PBS buffer containing 0.2% Tween 20 at room temperature. Then the membrane was rinsed once with PBS buffer to remove residual Tween 20. The membrane was kept in PBS buffer at 4° C. and then scanned with the Odyssey instrument. Fluorescence signals were recorded and analysed according to the instructions of the manufacturer.

JAK2 = molecular target: T2, JAK2 (Homo sapiens, UniProt O60674); experiment: Kinobeads assay, JAK2; details: mixed Molt4/Ramos lysate, read-out: Inhibition values (IC50) JAK2
T2 construct: endogenous in cells; host or cells: Molt4 (ATCC CRL-1582) and Ramos (ATCC CRL-1596), mixed lysate 1:2
T2 sequence (O60674 whole entry): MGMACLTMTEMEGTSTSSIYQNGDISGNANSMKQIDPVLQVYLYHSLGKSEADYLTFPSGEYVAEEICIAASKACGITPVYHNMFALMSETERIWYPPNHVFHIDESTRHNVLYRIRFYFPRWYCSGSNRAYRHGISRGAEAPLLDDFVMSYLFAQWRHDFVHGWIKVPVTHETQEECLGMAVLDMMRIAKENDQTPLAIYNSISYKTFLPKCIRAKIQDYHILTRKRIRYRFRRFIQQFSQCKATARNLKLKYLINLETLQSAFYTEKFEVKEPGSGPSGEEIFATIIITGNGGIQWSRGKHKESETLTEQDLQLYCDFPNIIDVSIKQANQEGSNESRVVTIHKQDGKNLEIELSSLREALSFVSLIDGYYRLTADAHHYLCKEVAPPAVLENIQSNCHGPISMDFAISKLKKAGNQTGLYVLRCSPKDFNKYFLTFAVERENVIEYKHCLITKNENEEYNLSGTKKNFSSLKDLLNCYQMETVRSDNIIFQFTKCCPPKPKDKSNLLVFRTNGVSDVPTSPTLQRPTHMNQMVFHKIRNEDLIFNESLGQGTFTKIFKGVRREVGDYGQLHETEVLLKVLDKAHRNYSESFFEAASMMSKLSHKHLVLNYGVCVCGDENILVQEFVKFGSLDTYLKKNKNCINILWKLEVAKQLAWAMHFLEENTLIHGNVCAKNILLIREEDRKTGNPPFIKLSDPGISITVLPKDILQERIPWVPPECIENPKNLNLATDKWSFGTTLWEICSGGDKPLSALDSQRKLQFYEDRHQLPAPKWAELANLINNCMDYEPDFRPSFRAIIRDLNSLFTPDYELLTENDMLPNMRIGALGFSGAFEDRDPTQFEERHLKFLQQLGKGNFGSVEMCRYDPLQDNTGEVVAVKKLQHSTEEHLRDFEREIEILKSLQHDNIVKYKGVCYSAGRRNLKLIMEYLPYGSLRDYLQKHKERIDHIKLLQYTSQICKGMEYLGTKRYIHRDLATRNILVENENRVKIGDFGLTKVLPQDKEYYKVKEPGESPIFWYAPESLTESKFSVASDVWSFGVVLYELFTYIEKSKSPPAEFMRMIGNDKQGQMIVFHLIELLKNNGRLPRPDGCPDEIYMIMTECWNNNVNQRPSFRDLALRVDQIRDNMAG
Description: (§2) The compounds of the present invention as described in the previous examples were tested in a Kinobeads™ assay as described for ZAP-70 (WO-A 2007/137867). Briefly, test compounds (at various concentrations) and the affinity matrix with the immobilized aminopyrido-pyrimidine ligand 24 were added to cell lysate aliquots and allowed to bind to the proteins in the lysate sample. After the incubation time the beads with captured proteins were separated from the lysate. Bound proteins were then eluted and the presence of JAK1, JAK2, JAK3 and TYK2 was detected and quantified using specific antibodies in a dot blot procedure and the Odyssey infrared detection system. Dose response curves for individual kinases were generated and IC50 values calculated. Kinobeads™ assays for ZAP-70 (WO-A 2007/137867) and for kinase selectivity profiling (WO-A 2006/134056) have been previously described.
(§3) The affinity matrix was washed two times with 15 mL of lx DP buffer containing 0.2% NP40 (IGEPAL® CA-630, Sigma, #13021) and then resuspended in 1×DP buffer containing 0.2% NP40 (3% beads slurry).
as §1
(§4) Stock solutions of test compounds were prepared in DMSO. In a 96 well plate […] solution of diluted test compounds at 5 mM in DMSO were prepared. Starting with this solution a 1:3 dilution series (9 steps) was prepared. For control experiments (no test compound) a buffer containing 2% DMSO was used.
(§5) Molt4 cells (ATCC catalogue number CRL-1582) and Ramos cells (ATCC catalogue number CRL-1596) were grown in 1 L Spinner flasks (Integra Biosciences, #182101) in suspension in RPMI 1640 medium (Invitrogen, #21875-034) supplemented with 10% Fetal Bovine Serum (Invitrogen) at a density between 0.15×10^6 and 1.2×10^6 cells/mL. Cells were harvested by centrifugation, washed once with 1×PBS buffer (Invitrogen, #14190-094) and cell pellets were frozen in liquid nitrogen and subsequently stored at −80° C. Cells were homogenized in a Potter S homogenizer in lysis buffer: 50 mM Tris-HCl, 0.8% NP40, 5% glycerol, 150 mM NaCl, 1.5 mM MgCl2, 25 mM NaF, 1 mM sodium vanadate, 1 mM DTT, pH 7.5. One complete EDTA-free tablet (protease inhibitor cocktail, Roche Diagnostics, 1873580) per 25 mL buffer was added. The material was dounced 10 times using a mechanized POTTER S, transferred to 50 mL falcon tubes, incubated for 30 minutes on ice and spun down for 10 minutes at 20,000 g at 4° C. (10,000 rpm in Sorvall SLA600, precooled). The supernatant was transferred to an ultracentrifuge (UZ)-polycarbonate tube (Beckmann, 355654) and spun for 1 hour at 100.000 g at 4° C. (33.500 rpm in Ti50.2, precooled). The supernatant was transferred again to a fresh 50 mL falcon tube, the protein concentration was determined by a Bradford assay (BioRad) and samples containing 50 mg of protein per aliquot were prepared. The samples were immediately used for experiments or frozen in liquid nitrogen and stored frozen at −80° C.
(§6) Cell lysate (approximately 50 mg protein per plate) was thawed in a water bath at room temperature and then stored on ice. To the thawed cell lysate 1×DP 0.8% NP40 buffer containing protease inhibitors (1 tablet for 25 mL buffer; EDTA-free protease inhibitor cocktail; Roche Diagnostics 1873580) was added in order to reach a final protein concentration of 10 mg/mL total protein. The diluted cell lysate was stored on ice. Mixed Molt4/Ramos lysate was prepared by combining one volume of Molt4 lysate and two volumes of Ramos lysate (ratio 1:2).
(§7) To a 96 well filter plate (Multiscreen HTS, BV Filter Plates, Millipore #MSBVN1250) were added per well: 100 μL affinity matrix (3% beads slurry), […], of compound solution, and 50 μL of diluted lysate. […]

TYK2 = molecular target: T3, TYK2 (Homo sapiens, UniProt P29597); experiment: Kinobeads assay, TYK2; details: mixed Molt4/Ramos lysate, read-out: Inhibition values (IC50) TYK2
T3 construct: endogenous in cells; host or cells: Molt4 (ATCC CRL-1582) and Ramos (ATCC CRL-1596), mixed lysate 1:2
T3 sequence (P29597 whole entry): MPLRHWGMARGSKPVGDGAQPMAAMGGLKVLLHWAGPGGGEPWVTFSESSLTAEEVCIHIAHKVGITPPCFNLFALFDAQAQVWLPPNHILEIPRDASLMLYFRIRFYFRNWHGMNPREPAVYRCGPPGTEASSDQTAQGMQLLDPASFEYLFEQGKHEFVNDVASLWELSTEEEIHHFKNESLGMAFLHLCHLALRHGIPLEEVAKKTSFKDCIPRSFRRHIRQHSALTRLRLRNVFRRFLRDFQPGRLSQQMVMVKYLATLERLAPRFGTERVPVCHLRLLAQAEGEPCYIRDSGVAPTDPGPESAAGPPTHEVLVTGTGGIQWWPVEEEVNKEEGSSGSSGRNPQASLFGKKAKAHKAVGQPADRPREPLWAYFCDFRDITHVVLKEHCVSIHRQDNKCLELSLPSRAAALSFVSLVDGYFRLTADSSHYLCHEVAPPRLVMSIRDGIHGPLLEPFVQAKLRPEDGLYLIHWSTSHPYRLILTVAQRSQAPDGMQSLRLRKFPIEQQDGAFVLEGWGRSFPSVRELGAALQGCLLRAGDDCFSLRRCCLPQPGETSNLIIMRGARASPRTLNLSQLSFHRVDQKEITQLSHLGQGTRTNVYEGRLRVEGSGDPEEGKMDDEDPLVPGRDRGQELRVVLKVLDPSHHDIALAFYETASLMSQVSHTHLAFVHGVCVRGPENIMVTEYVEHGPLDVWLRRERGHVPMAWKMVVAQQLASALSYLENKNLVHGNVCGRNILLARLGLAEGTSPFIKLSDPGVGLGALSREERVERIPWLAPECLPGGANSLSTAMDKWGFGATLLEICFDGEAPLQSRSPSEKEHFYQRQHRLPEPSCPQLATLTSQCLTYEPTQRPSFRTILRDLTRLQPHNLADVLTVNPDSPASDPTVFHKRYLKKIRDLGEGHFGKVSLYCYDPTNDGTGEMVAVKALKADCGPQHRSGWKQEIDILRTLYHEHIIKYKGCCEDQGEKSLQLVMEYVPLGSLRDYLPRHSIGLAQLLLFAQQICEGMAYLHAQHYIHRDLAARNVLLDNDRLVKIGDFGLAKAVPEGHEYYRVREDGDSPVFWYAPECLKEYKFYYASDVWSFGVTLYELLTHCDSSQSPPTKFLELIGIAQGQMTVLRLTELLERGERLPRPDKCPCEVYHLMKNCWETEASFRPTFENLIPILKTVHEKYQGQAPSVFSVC
Description: as §2, §3, §1, §4, §5, §6, §7

T1 sequence (P23458 whole entry): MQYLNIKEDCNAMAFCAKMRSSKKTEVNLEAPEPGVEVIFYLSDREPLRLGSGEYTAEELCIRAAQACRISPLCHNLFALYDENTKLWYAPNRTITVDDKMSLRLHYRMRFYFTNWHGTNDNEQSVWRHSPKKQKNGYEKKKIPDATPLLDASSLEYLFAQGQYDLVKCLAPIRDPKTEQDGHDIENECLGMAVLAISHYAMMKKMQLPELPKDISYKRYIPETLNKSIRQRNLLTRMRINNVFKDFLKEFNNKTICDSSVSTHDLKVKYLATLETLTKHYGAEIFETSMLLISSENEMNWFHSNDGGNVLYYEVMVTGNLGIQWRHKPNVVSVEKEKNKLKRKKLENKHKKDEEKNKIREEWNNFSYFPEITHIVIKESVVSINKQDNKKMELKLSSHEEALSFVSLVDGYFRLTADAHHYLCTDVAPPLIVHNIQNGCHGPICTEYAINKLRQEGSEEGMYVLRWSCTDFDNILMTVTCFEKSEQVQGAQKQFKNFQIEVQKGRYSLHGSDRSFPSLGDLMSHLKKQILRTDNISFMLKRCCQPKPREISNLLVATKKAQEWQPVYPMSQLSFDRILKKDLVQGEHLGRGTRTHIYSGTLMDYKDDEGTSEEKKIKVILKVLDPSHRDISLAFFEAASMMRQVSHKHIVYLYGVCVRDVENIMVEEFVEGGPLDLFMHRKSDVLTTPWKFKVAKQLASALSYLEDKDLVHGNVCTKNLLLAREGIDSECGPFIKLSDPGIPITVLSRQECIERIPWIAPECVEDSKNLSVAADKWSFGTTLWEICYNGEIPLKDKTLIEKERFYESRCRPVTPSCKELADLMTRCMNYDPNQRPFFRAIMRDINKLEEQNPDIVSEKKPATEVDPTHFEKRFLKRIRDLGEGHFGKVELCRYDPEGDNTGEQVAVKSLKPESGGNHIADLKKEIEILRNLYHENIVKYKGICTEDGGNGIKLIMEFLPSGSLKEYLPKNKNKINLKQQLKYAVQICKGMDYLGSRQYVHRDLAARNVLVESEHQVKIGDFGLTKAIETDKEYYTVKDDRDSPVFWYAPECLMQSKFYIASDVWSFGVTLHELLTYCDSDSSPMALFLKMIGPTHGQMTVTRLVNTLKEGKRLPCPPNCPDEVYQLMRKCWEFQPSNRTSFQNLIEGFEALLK

IC50 (JAK1) [µM]	IC50 (JAK2) [µM]	IC50 (TYK2) [µM]	SMILES
< 0.1	0.1 to 1	0.1 to 1	NC(=O)Cn1cc(Nc2ncc(Cl)c(N[C@H](CO)c3cc(F)cc(F)c3)n2)cn1 [Compound 144]
0.1 to 1	0.1 to 1	0.1 to 1	Cc1cnc(Nc2cnn(C)c2)nc1N[C@H](CO)c1cc(F)ccc1F [Compound 163]
0.1 to 1	0.1 to 1	0.1 to 1	Cn1cc(Nc2ncc(Cl)c(N[C@H](CO)c3cc(F)ccc3F)n2)cn1 [Compound 139]
0.1 to 1	1 to 10	0.1 to 1	NC(=O)Cn1cc(Nc2ncc(F)c(N[C@H](CO)c3cc(F)cc(F)c3)n2)cn1 [Compound 160]
0.1 to 1	1 to 10	0.1 to 1	Cn1cc(Nc2ncc(F)c(N[C@H](CO)c3cc(F)ccc3F)n2)cn1 [Compound 146]
0.1 to 1	1 to 10	1 to 10	Cc1cnc(Nc2cnn(CC(F)F)c2)nc1N[C@H](CO)c1cc(F)ccc1F [Compound 166]
1 to 10	≥ 10	≥ 10	Cn1cc(Nc2ncc(Cl)c(N[C@H](CO)c3cccc(N4CCOCC4=O)c3F)n2)cn1 [Compound 162]
0.1 to 1	1 to 10	1 to 10	Cc1cnc(Nc2cnn(CC(=O)N(C)C)c2)nc1N[C@H](CO)c1ccccc1 [Compound 134]
1 to 10	1 to 10	0.1 to 1	CNC(=O)Cn1cc(Nc2ncc(Cl)c(NC(CO)c3ccccc3C(F)(F)F)n2)cn1 (stereo not drawn) [Compound 131]
1 to 10	≥ 10	≥ 10	CNC(=O)Cn1cc(Nc2ncc(F)c(N[C@H](CO)c3cc(F)cc(-c4cnn(C)c4)c3)n2)cn1 [Compound 157]
< 0.1	0.1 to 1	0.1 to 1	NC(=O)Cn1cc(Nc2ncc(Cl)c(N[C@H](CO)c3cc(F)ccc3F)n2)cn1 [Compound 140]
1 to 10	≥ 10	≥ 10	Cn1cc(Nc2ncc(F)c(N[C@H](CO)c3cc(F)cc(-c4cnn(C)c4)c3)n2)cn1 [Compound 150]

Continued, compound first:

SMILES	IC50 (JAK1) [µM]	IC50 (JAK2) [µM]	IC50 (TYK2) [µM]
CCC(Nc1nc(Nc2cnn(CC(N)=O)c2)ncc1Cl)c1ccccc1F (stereo not drawn) [Compound 126]	0.1 to 1	1 to 10	1 to 10
CCn1cc(Nc2ncc(Cl)c(N[C@H](CO)c3cccnc3)n2)cn1 [Compound 97]	1 to 10	1 to 10	1 to 10
COc1ccccc1[C@@H](CO)Nc1nc(Nc2cnn(C(C)C)c2)ncc1Cl [Compound 105]	1 to 10	0.1 to 1	1 to 10
Cn1cc(Nc2ncc(Cl)c(NC(CO)c3ccccc3Cl)n2)cn1 (stereo not drawn) [Compound 117]	1 to 10	1 to 10	1 to 10
OCCn1cc(Nc2ncc(Cl)c(NC(CO)c3ccccc3Cl)n2)cn1 (stereo not drawn) [Compound 120]	0.1 to 1	1 to 10	0.1 to 1
CCn1cc(Nc2ncc(Cl)c(N[C@H](CO)c3ccccc3F)n2)cn1 [Compound 109]	1 to 10	1 to 10	1 to 10
CNC(=O)Cn1cc(Nc2ncc(Cl)c(NC(CO)c3ccccc3Cl)n2)cn1 (stereo not drawn) [Compound 119]	0.1 to 1	1 to 10	1 to 10
CNC(=O)Cn1cc(Nc2ncc(Cl)c(N[C@H](CO)c3cccc(OC)c3)n2)cn1 [Compound 99]	1 to 10	≥ 10	1 to 10
COc1cccc([C@@H](CO)Nc2nc(Nc3cnn(C(C)C)c3)ncc2Cl)c1 [Compound 106]	> 10	1 to 10	1 to 10
NC(=O)Cn1cc(Nc2ncc(Cl)c(NC(CO)c3ccccc3Cl)n2)cn1 (stereo not drawn) [Compound 118]	0.1 to 1	1 to 10	0.1 to 1
Cn1cc(-c2cccc(C(CO)Nc3nc(Nc4cnn(CCO)c4)ncc3Cl)c2)cn1 (stereo not drawn) [Compound 94]	1 to 10	≥ 10	≥ 10
CC(C)NC(=O)Cn1cc(Nc2ncc(Cl)c(N[C@H](CO)c3ccccc3F)n2)cn1 [Compound 115]	0.1 to 1	1 to 10	0.1 to 1
CC(C)n1cc(Nc2ncc(Cl)c(N[C@H](CO)c3cccnc3)n2)cn1 [Compound 107]	1 to 10	1 to 10	1 to 10
Cn1cc(Nc2ncc(C(F)(F)F)c(N[C@H](CO)c3ccccc3)n2)cn1 [Compound 6]	> 10	≥ 10	≥ 10
Cn1cc(Nc2ncc(Cl)c(NC(CO)c3cccc(N4CCOCC4=O)c3)n2)cn1 (stereo not drawn) [Compound 124]	1 to 10	≥ 10	1 to 10
Cn1cc(Nc2ncc(C(F)(F)F)c(NC(C)(CO)c3ccccc3)n2)cn1 (stereo not drawn) [Compound 8]	> 10	≥ 10	≥ 10
CNC(=O)Cn1cc(Nc2ncc(Cl)c(NC(CO)c3cc(F)cc(F)c3)n2)cn1 (stereo not drawn) [Compound 123]	0.1 to 1	1 to 10	1 to 10
CCn1cc(Nc2ncc(Cl)c(N[C@H](CO)c3cccc(OC)c3)n2)cn1 [Compound 96]	1 to 10	≥ 10	1 to 10
O=C(Cn1cc(Nc2ncc(Cl)c(N[C@H](CO)c3cccnc3)n2)cn1)N1CCOCC1 [Compound 104]	0.1 to 1	1 to 10	0.1 to 1
CCC(Nc1nc(Nc2cnn(C)c2)ncc1Cl)c1ccccc1F (stereo not drawn) [Compound 125]	1 to 10	1 to 10	1 to 10
